Patent US6664252B2, “4-aminopyrrolo[2,3-d]pyrimidine compounds specific to adenosine A2a receptor and uses thereof” (OSI Pharmaceuticals, Inc., priority 1999, dated 2003)
One block for each compound: values may come before it.

Legend:
[1] = biological target: T1, human A1 adenosine receptor (Homo sapiens, UniProt P30542); conditions: reported value; cited from earlier work
T1 sequence (P30542 1-326): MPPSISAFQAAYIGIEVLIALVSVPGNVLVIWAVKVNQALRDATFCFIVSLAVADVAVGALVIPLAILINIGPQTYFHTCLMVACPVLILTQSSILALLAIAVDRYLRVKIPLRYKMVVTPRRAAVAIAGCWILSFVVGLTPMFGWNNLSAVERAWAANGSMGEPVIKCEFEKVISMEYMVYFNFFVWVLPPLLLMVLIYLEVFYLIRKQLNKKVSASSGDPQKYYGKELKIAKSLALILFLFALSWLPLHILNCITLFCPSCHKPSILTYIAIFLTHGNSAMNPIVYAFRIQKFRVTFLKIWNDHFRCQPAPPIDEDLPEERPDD

human adenosine A1 (A1R) = biological target: T2, human adenosine A1 (A1R) (Homo sapiens, UniProt P30542); assay: Yeast β-Galactosidase reporter gene assay, inhibition of NECA-induced activity, strain CY12660; assay type: cell-based; conditions: Table 10
T2 construct: yeast alpha-factor (MFalpha1) prepro leader (N, cleaved yes); expressed in transfected cells; host or cells: Saccharomyces cerevisiae (strain CY12660 and related strains carrying plasmid p5095)
T2 sequence (P30542 1-326): T1 sequence (P30542 1-326)

[2] = biological target: T3, human A2b receptor subtype (Homo sapiens, UniProt P29275); assay: Adenosine 2b receptor subtype competition radioligand binding, [3H]DPCPX, HEK293 membranes; conditions: for Ki: Table 14, read-out: Binding Data K1 (nM) A2B
T3 construct: expressed in transfected cells; host or cells: HEK293
T3 sequence (P29275 1-332): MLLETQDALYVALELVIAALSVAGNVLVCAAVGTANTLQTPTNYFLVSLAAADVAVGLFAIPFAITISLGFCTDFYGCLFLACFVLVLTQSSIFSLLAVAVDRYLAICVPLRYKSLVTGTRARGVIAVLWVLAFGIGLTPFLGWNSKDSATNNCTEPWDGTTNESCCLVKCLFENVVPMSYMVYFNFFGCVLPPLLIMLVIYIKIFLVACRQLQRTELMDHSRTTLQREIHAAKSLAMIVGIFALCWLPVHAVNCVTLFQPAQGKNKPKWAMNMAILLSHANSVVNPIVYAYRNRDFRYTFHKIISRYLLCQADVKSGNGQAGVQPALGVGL

[3] = biological target: T4, human A2a receptor subtype (Homo sapiens, UniProt P29274); assay: Adenosine 2a receptor subtype competition radioligand binding, [3H]CGS-21680, HEK293 membranes; conditions: Table 13, in %; footnote 8: % activity @ 10 μM
T4 construct: expressed in transfected cells; host or cells: HEK-293 (Cadus clone #5)
T4 sequence (P29274 whole entry): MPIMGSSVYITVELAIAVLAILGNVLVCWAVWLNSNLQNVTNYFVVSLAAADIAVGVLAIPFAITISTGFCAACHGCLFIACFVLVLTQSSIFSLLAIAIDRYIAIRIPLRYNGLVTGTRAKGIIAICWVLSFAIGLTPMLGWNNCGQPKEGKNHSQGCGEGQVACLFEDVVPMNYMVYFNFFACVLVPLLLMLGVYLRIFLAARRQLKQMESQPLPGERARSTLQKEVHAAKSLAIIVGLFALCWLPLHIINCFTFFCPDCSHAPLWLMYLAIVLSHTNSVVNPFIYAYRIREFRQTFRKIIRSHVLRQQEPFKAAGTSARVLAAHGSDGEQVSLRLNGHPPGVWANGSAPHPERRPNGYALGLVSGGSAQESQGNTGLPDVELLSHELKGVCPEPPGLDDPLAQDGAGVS

[4] = biological target: T5, human A1 receptor subtype (Homo sapiens, UniProt P30542); conditions: Table 13, in %; footnote 8: % activity @ 10 μM
T5 sequence (P30542 1-326): T1 sequence (P30542 1-326)

[5] = biological target: T6, human A3 receptor subtype (Homo sapiens, UniProt P0DMS8); assay: Adenosine 3 receptor competition radioligand binding, [125I]AB-MECA, HEK293 membranes; conditions: Table 14; read-out: Binding Data K1 (nM) A3
T6 construct: expressed in transfected cells; host or cells: HEK293
T6 sequence (P0DMS8 1-318): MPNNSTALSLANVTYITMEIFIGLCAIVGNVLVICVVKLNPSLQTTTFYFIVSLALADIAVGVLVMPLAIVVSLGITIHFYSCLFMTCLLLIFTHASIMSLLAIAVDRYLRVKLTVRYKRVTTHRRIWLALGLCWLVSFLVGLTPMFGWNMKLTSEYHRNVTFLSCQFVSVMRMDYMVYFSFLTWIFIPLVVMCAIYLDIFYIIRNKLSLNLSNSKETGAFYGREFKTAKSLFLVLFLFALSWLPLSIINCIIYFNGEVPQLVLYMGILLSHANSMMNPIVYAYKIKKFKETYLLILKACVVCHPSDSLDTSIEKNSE

Compound: CC(Cc1ccccc1)Nc1ncnc2c1ncn2[C@@H]1O[C@H](CO)[C@@H](O)[C@H]1O (single isomer, unassigned; (-)) [R-PIA, (−)-N6-(2-phenylisopropyl)-adenosine]
reported affinity [1]: approximately 50 nM

melting point: 196 to 197 °C
Compound: CC(=O)NCCNc1nc(-c2ccccc2)nc2[nH]c(COc3ccccc3)cc12 [(25), 4-(2-acetylaminoethyl)amino-6-phenoxymethyl-2-phenyl-7H-pyrrolo[2,3d]pyrimidine]

IC50 (human adenosine A1 (A1R)): > 10000 nM
Compound: Cc1[nH]c2nc(-c3ccccc3)nc(NCCN)c2c1C [Compound 1000]

IC50 (human adenosine A1 (A1R)): > 10000 nM
Compound: Cc1[nH]c2nc(-c3ccccc3)nc(NCCNS(C)(=O)=O)c2c1C [Compound 1007]

IC50 (human adenosine A1 (A1R)): > 10000 nM
Compound: Cc1[nH]c2nc(-c3ccccc3)nc(NCCNC(=O)CCN)c2c1C [Compound 1009]

% activity, A2b binding ([2]; Table 13, in %, footnote 8: % activity @ 10 μM): 30%
Compound: Cc1[nH]c2nc(-c3ccccc3)nc(N[C@H]3CC[C@H](O)CC3)c2c1C [Compound 1305]

Compound: CNC(=O)NCCCNc1nc(-c2ccccc2)nc2[nH]c(C)c(C)c12 [Compound 1310]
% activity, A2a binding [3]: 76%

Compound: Cc1[nH]c2nc(-c3ccccc3)nc(NCCNC(=O)C3(N)CC3)c2c1C [Compound 1313]
% activity, A2a binding [3]: 65%
% activity, A1 binding [4]: 30%

Ki [2]: 10.3 nM
Compound: CC(=O)NCCNc1nc(-c2ccccc2)nc2[nH]c(COc3ccccc3)cc12 [Compound 1400, 4-(2-acetylaminoethyl)amino-6-phenoxymethyl-2-phenyl-7H-pyrrolo[2,3d]pyrimidine]

Ki [2]: 8.8 nM
Compound: CC(=O)NCCNc1nc(-c2ccccc2)nc2[nH]c(COc3ccc(F)cc3)cc12 [Compound 1401, 4-(2-acetylaminoethyl)amino-6-(4-fluorophenoxy)methyl-2-phenyl-7H-pyrrolo[2,3d]pyrimidine]

Ki [5]: 60 nM
Compound: CC(=O)NCCNc1nc(-c2ccccc2)nc2[nH]c(COc3ccc(Cl)cc3)cc12 [Compound 1402, 4-(2-acetylaminoethyl)amino-6-(4-chlorophenoxy)methyl-2-phenyl-7H-pyrrolo[2,3d]pyrimidine]

melting point: 210 to 220 °C (dec.)
Compound: OC[C@H]1CCCN1c1nc(-c2ccncc2)nc2[nH]ccc12 [Compound 1601]

melting point: 280 to 316 °C (dec.)
Compound: NC(=O)[C@H]1CCCN1c1nc(-c2ccncc2)nc2[nH]c(-c3ccccc3)cc12 [Compound 1609, 1-(6-Phenyl-2-pyridin-4-yl-7H-pyrrolo[2,3-d]pyrimidin-4-yl]-pyrrolidine-2-carboxylic acid amide]
